Converted amounts (≈) assume the structure as drawn. Where two headings read alike, the source gives them in different places.
Key:
[1] = test system: Hela S3 cultured cells; test: Effects upon Hela S3 cultured cells (cell count after 72 hours); format: cell-based; conditions: Homo sapiens
Procedure: Table 3 indicates the effects of typical Compounds (I) against Hela S3 culture cells In this Table, IC50 denotes the concentration of the test compound capable of reducing the number of the cells to 50% of the number of untreated cells.
The experiment was carried out in the following manner:
Cultured cells of Hela S3 were added to a MEM medium containing 10% (V/V) of bovine fetal serum and […] of glutamine to obtain a cell suspension of 3×10^4 cells/ml. The cell suspension was poured into each well (1 ml/well) of a multiplate having 24 wells for culturing at 37° C. in an incubator containing carbon dioxide (5%) and air (95%). After 24 hours, samples were dissolved or suspended in PBS, ethanol or dimethylsulfoxide were added to the medium at different concentrations,followed by culturing at 37° C. for 72 hours in the same incubator.
An aspirator was used to collect the medium from each well. The surface of each medium was washed by added PBS (1 ml) gently, and then PBS was sucked out. PBS containing trypsin (0.05%) and EDTA (0.02%) was poured into each well. After pipetting, the number of the cells in each suspension was counted by the use of a micro-cell counter (commercial product of Toa Iyo Denshi K.K., Japan). By reference to a curve showing the concentration vs. the number of the cells, IC50 (concentration of the sample capable of reducing the number of the cells to 50% on the basis of the number of control untreated cells) was measured.

[2] = test system: Sarcoma 180 solid tumour; format: in vivo, ddy mouse; conditions: ddy mice, LD50 abdominal, ED50 single tail vein dose, tumour volume 7 days after implantation
From the text: (§1) In this table, C.I. denotes chemotherapeutic index, calculated as (LD50)/(ED50), wherein LD50 denotes the value of acute toxity, and ED50 denotes the dose of a sample which is capable of reducing the volume of Sarcoma 180 solid tumour to 50% of the corresponding volume of the solid tumour of untreated group.
(§2) The test compound was abdominally administered once to ddy mice, each group consisting of 5 animals.
(§3) 5×10^6 cells of Sarcoma 180 solid tumour were abdominally implanted into a ddy mouse. After 7 days, the cells were collected from the acsites fluid. The cells were washed once with physiological saline under sterile conditions and suspended in physiological saline to obtain a cell suspension containing 5×10^7 cells/ml, of which 0.1 ml was implanted into a ddy mouse (body weight 20±2 g) under the skin of the right armpit. The test compound was dissolved in physiological saline or the same solution containing Tween 80. 24 hours after implantation of the tumour cells, 0.1-0.2 ml of the solution containing the test compound was administered to the vein at the tail of each animal of the test group consisting of 5 animals. 7 days after the implantation, the major axis (a) and minor axis (b) of the tumour were measured to calculate the volume of the tumour as "a"×"b^2 "/2. The antitumour effect was indicated by T/C which is the ratio of the tumour volume in the test animals to the corresponding volume of the control (untreated) animals.
(§4) T/C ratios and the dose were respectively plotted on the ordinate using an arithmetic scale and on the abscissa using a logarithmic scale, the relationship between the dosage and the T/C ratio being converted to a straight line by the least squares method. From the straight tropic line thus-obtained, the dose corresponding to a T/C=0.5 viz. ED50 was determined.

[3] = in vivo; conditions: mouse, ip, ddy mice, single abdominal administration, 14 days observation, Behrens-Korber's method
From the text: as §2

[4] = in vivo; conditions: mouse, ip
From the text: as §1, §3, §4
Sarcoma 180 solid tumour cells (5×10^6) were subcutaneously implanted into the skin under the right armpit of each mouse (body weight 20±2 g) of a group consisting of 5 male mice (ddy strain). 24 hours later, a test compound was intraperitoneally administered to each animal. 4 days later, blood (0.02 ml) was collected from the suborbital plexus vein of each tumour-carrying animal. The collected sample of blood was dispersed in 9.98 ml of Cell-kit Seven solution. One drop of saponin solution was added to the sample to dissolve erythrocytes and then a microcell counter was used to measure the number of leucocytes. On graph paper, the number of leucocytes was plotted on the ordinate using an arithmetic scale, and the dosage was plotted on the abscissa using a logarithmic scale to plot the relationship of the dosage to the number of peripheral leucocytes, from which the value of WBC4000, viz. a value capable of giving 4000 peripheral leucocytes (about half of the corresponding value in normal mice) per mm^3, was obtained.

Compound	IC50 ([1]; HeLa S3, 72 h)	C.I. (chemotherapeutic index, LD50/ED50) [2]	LD50 at 336 h [3]	selectivity ratio [4]	IC50 ([1]; Hela S3 cells, 72 hours at 37° C., concentration reducing cell number to 50% of untreated, read-out: IC50)
CCC(C)ON=C1C(=O)C2=C(C(=O)C1C)N1C[C@@H]3N[C@@H]3[C@]1(OC)[C@@H]2COC(N)=O (stereo partly shown) [Example 3]	1 ng/mL (≈ 0.00246 µM)	3.1	18.8 mg/kg	2.4	–
CO[C@@]12[C@H](COC(N)=O)C3=C(C(=O)C(C)C(=NOCC(C)C)C3=O)N1C[C@H]1[C@@H]2N1C (stereo partly drawn) [Example 5, [1aS-(1aα, 8β, 8aα, 8bα)]-8-{[(aminocarbonyl)oxy]methyl}-1,5-dimethyl-6-[(isobutyloxy)imino]8a-methoxy-1,1a,2,5,6,8,8a,8b-octahydro-azirino [2',3': 3,4]pyrrolo[1,2-a]indole-4,7-dione]	–	3.4	60 mg/kg	1.4	–
CO[C@@]12[C@H](CO)C3=C(C(=O)C(C)C(=NOCC(C)C)C3=O)N1C[C@@H]1N[C@@H]12 (stereo partly drawn) [Example 7, [1aS-(1aα, 8β, 8aα, 8bα)]-8-hydroxymethyl-6-[(isobutyloxy)imino] -8a-methoxy-5-methyl-1,1a, 2,5,6,8,8a,8b-octahydro-azirino [2',3':3,4]pyrrolo[1,2-a] indole-4,7-dione]	3 ng/mL (≈ 0.00826 µM)	–	–	–	–
CO[C@@]12[C@H](COC(N)=O)C3=C(C(=O)C(C)C(=NOCC(C)C)C3=O)N1C[C@@H]1N[C@@H]12 (stereo partly drawn) [Example 2, [1aS-(1aα, 8β, 8aα, 8bα)]-8-{[(aminocarbonyl)oxy]methyl}-6-[(isobutyloxy)imino]-8a-methoxy-5-methyl1,1a,2,5,6,8,8a,8b-octahydro-azirino[2',3':3,4]pyrrolo[1,2-a]indole-4,7-dione]	3 ng/mL (≈ 0.00738 µM)	3.6	18.8 mg/kg	1.9	–
CCCCON=C1C(=O)C2=C(C(=O)C1C)N1C[C@@H]3N[C@@H]3[C@]1(OC)[C@@H]2COC(N)=O (stereo partly shown) [Example 4]	6 ng/mL (≈ 0.0148 µM)	2.7	18.8 mg/kg	0.9	–
CC(C)CON=C1C(=O)C2=C(C(=O)C1C)N1C[C@H]3[C@H](N3C)[C@]1(O)[C@H]2COC(N)=O (stereo partly shown) [Example 6]	30 ng/mL (≈ 0.0738 µM)	–	–	–	–
CO[C@@]12[C@H](COC(N)=O)C3=C(C(=O)C(C)=C(N)C3=O)N1C[C@@H]1N[C@@H]12 [Mitomycin C, reference compound]	–	–	–	–	4 ng/mL (≈ 0.012 µM)
CON=C1C(=O)C2=C(C(=O)C1C)N1C[C@@H]3N[C@@H]3[C@]1(OC)[C@@H]2COC(N)=O (stereo partly drawn) [Example 1, [1aS-(1aα,8β,8aα,8bα)]-8-{[(aminocarbonyl)oxy]methyl}-8a-methoxy-6-[(methoxy)imino]-5-methyl-1,1a,2,5,6,8,8a,8b-octahydro-azirino-[2',3':3,4]pyrrolo[1,2-a]indole-4,7-dione]	12 ng/mL (≈ 0.0329 µM)	0.7	37.5 mg/kg	0.5	–

— US4791130A, “Mitomycin derivatives as antileukemia agents” (priority 1986, dated 1988)
